This is an account of results in patent publication US8231869B2, “Recombinant plasmin for opthalmic indications” (priority 2005, dated 2012).

Data set [1] has as its target delta-plasmin (recombinant human plasmin deletion mutant, kringle 1-serine protease domain, deletion of K2-5; from delta-plasminogen SEQ ID NO: 2) (Homo sapiens, UniProt P00747, DELINS146-524/G536N/G539Q/K528E/L551R/N547D/P558L/Q559E/R549E/V538P/V557I). Put plainly: Amidolytic activity, steady-state kinetics with substrate S-2251. The format is biochemical. The following applies: substrate S-2251, PBS buffer, pH 7.4, 25° C.

For data set [2], the target named is human plasmin (full-length; native human plasminogen SEQ ID NO: 4) (Homo sapiens, UniProt P00747). Described as above. The format is biochemical. The conditions noted are these: substrate S-2251, PBS buffer, pH 7.4, 25° C.
Chain of human plasmin (full-length; native human plasminogen SEQ ID NO: 4) (P00747 97-580 partner limits assumed, one chain of several): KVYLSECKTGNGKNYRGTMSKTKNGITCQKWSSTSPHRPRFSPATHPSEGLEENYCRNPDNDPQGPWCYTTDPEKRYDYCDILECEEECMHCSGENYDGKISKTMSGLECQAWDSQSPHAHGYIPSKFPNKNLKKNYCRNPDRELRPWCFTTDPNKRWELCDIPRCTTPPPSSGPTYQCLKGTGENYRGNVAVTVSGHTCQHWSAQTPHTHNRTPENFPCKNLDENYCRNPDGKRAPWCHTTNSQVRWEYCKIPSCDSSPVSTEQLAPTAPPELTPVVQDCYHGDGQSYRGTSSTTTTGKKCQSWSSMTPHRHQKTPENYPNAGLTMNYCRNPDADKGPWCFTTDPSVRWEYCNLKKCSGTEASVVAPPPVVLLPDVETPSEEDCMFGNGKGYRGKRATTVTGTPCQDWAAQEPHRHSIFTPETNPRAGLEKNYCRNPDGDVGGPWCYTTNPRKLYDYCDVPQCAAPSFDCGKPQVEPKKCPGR
The target of data set [3] is human micro-plasmin (plasmin lacking all five kringles) (Homo sapiens, UniProt P00747). Described as above. The format is biochemical. The conditions noted are these: substrate S-2251, PBS buffer, pH 7.4, 25° C.
Data set [4] deals with kringle 1 (of human plasminogen). The conditions noted are these: literature value, et al., read-out: kringle 1 affinity for εACA (Kd), cited from earlier work.
Substrate in data set [5]: CC(C)C[C@H](NC(=O)[C@H](N)C(C)C)C(=O)N[C@@H](CCCCN)C(=O)Nc1ccc([N+](=O)[O-])cc1
In words: purified protein, by the assay type. Format: biochemical, human. The following applies: other: substrate S-2251, PBS buffer, pH 7.4, 25° C.

Where two headings read alike, the source gives them in different places. Where a SMILES comes first, the peptide text is derived from it. [ ]: non-standard residue; d: D form. The star is where a group is joined. pNA = O=[N+]([O-])c1ccc(N*)cc1

Chain of delta-plasmin (recombinant human plasmin deletion mutant, kringle 1-serine protease domain, deletion of K2-5; from delta-plasminogen SEQ ID NO: 2) (P00747 with tags, fused parts or gaps K528E/G536N/V538P/G539Q/N547D/R549E/L551R/V557I/P558L/Q559E limits assumed): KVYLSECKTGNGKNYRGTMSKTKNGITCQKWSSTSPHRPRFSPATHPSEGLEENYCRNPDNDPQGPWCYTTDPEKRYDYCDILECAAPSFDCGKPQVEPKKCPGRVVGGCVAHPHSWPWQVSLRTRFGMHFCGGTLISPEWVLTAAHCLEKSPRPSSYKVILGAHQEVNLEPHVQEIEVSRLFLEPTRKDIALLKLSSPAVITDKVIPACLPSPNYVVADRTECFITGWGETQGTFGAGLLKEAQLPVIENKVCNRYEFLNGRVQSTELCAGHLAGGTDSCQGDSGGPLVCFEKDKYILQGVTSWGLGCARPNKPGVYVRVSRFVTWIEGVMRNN

As to `CC(C)C[C@H](NC(=O)[C@H](N)C(C)C)C(=O)N[C@@H](CCCCN)C(=O)Nc1ccc([N+](=O)[O-])cc1` [S-2251, D-Val-Leu-Lys-p-nitroanilide] (H-[dV]-Leu-Lys-pNA), the kcat (as a rule, the maximal rate divided by the concentration of active sites) came out at 12.6 ± 0.75 s⁻¹ in data set [1] (corrected for percent active sites (67%, PNPGB titration)); 12.7 ± 0.383 s⁻¹ in data set [2]; 13.2 ± 0.4 s⁻¹ in data set [3]. For the same molecule, the “kcat (for the preparation)” value in data set [1] (not corrected for percent active sites) came out at 8.5 s⁻¹.
Consider `NCCCCCC(=O)O` [εACA, ε-aminocaproic acid], for which the Kd (commonly a measure of binding affinity in units of concentration) in data set [4] (Douglas) is 13 µM; in data set [4] (Matsuka), 3.2 µM.

B1: human plasmin (full-length; native human plasminogen SEQ ID NO: 4) (Homo sapiens) (protein)
chain: VVGGCVAHPHSWPWQVSLRTRFGMHFCGGTLISPEWVLTAAHCLEKSPRPSSYKVILGAHQEVNLEPHVQEIEVSRLFLEPTRKDIALLKLSSPAVITDKVIPACLPSPNYVVADRTECFITGWGETQGTFGAGLLKEAQLPVIENKVCNRYEFLNGRVQSTELCAGHLAGGTDSCQGDSGGPLVCFEKDKYILQGVTSWGLGCARPNKPGVYVRVSRFVTWIEGVMRNN
notes: The C-terminal light chain of plasmin (residues 562-791); The amino-terminal heavy chain of plasmin
For B1, in data set [5], the Km was 193 +/− 7 μM μM and the kcat was 760 +/− 23 min^−1 min^−1.

B2: human micro-plasmin (plasmin lacking all five kringles) (Homo sapiens) (protein)
chain: VVGGCVAHPHSWPWQVSLRTRFGMHFCGGTLISPEWVLTAAHCLEKSPRPSSYKVILGAHQEVNLEPHVQEIEVSRLFLEPTRKDIALLKLSSPAVITDKVIPACLPSPNYVVADRTECFITGWGETQGTFGAGLLKEAQLPVIENKVCNRYEFLNGRVQSTELCAGHLAGGTDSCQGDSGGPLVCFEKDKYILQGVTSWGLGCARPNKPGVYVRVSRFVTWIEGVMRNN
notes: micro-plasmin (lacking all five kringles)
For B2, in data set [5], the Km was 145 +/− 13 μM μM and the kcat was 795 +/− 24 min^−1 min^−1.

B3: human mini-plasmin (plasmin fragment, domain composition K5-SP; mini-plasminogen residues Val443-Asn791) (Homo sapiens) (protein)
chain: VVGGCVAHPHSWPWQVSLRTRFGMHFCGGTLISPEWVLTAAHCLEKSPRPSSYKVILGAHQEVNLEPHVQEIEVSRLFLEPTRKDIALLKLSSPAVITDKVIPACLPSPNYVVADRTECFITGWGETQGTFGAGLLKEAQLPVIENKVCNRYEFLNGRVQSTELCAGHLAGGTDSCQGDSGGPLVCFEKDKYILQGVTSWGLGCARPNKPGVYVRVSRFVTWIEGVMRNN
notes: includes residues Val443-Asn791 and consists of the fifth kringle and the serine protease domain
As for B3, in data set [5], the Km is 160 +/− 30 μM μM and the kcat is 770 +/− 70 min^−1 min^−1.
